Data on five compounds can be found in ChEMBL document CHEMBL1124642 (1989).

Molecules are shown by their SMILES. Activity calls are given as the source filed them. The rule behind the calls is not given here.

The species entered for one test is Cavia porcellus. Briefly: Effective dose for guinea pig ileum contractions. The class given is functional. To be noted: for EC50: read-out: ED50 (the source's name).
Test [1] addresses Muscarinic acetylcholine receptor (Homo sapiens) (UniProt P20309+P08173+P11229+P08172+P08912). In words: Tested in vitro for agonistic effect on Muscarinic acetylcholine receptor of guinea pig ileum; IA = Inactive. It counts as functional, tissue-based. To be noted: Cavia porcellus, target entry is the homologue from another species.

Turning to `CCN1C(=O)OCC1Cc1cn(Cc2ccccc2)cn1` (stereo not given), the ED50 entry in the test listed under Cavia porcellus was “inactive”.

In the case of `CCN1C(=O)OCC1Cc1cncn1C` (stereo not given), the EC50 in the test filed under Cavia porcellus was determined as 1 µM.

With `CCN1C(=O)OCC1Cc1cn(Cc2ccccc2)c[n+]1C` (stereo not given), in test [1], the ED50 entry is “inactive”.

`CCN1C(=O)OCC1Cc1c[nH]cn1` (stereo not given): in the test listed under Cavia porcellus, the EC50 is 180 µM.

For the compound `CCN1C(=O)OCC1Cc1cn(C)cn1` (stereo not given), the EC50 in the test listed under Cavia porcellus is 14 µM.
